Experimental data taken from patent US9884836B2, “2-substituted-5-hydroxy-4H-chromen-4-ones as novel ligands for the serotonin receptor 2B (5-HT2B)” (VIRGINIA COMMONWEALTH UNIVERSITY, priority 2014, dated 2018).
Like-named read-outs stand apart in the source and are kept apart here.

Tests used:
5-HT2C [1] = target: T1, 5-HT2C (Homo sapiens, UniProt P28335); test: Primary screening: inhibition of radioligand binding at 5-HT2C (NIMH PDSP)
T1 sequence (P28335 33-458): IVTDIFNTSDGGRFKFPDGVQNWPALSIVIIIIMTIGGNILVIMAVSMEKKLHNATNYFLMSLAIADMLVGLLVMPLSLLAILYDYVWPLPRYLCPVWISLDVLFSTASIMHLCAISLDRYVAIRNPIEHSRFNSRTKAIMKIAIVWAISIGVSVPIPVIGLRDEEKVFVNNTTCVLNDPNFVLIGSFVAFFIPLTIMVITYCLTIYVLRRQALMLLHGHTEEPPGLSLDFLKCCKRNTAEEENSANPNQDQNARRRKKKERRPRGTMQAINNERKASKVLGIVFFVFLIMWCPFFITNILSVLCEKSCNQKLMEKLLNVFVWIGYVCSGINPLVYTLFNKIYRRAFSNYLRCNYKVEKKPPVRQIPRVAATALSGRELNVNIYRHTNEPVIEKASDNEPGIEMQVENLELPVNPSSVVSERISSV

5-HT2B receptor [2] = target: T2, 5-HT2B receptor (Homo sapiens, UniProt P41595); test: Primary screening: inhibition of radioligand binding at 5-HT2B (NIMH PDSP)
5-HT2C [3] = target: T1, 5-HT2C; test: Binding affinity (pKi) at 5-HT2C
5-HT2A = 5-HT2A (Homo sapiens, UniProt P28223); test: Primary screening: inhibition of radioligand binding at 5-HT2A (NIMH PDSP)
5-HT2B receptor [4] = target: T2, 5-HT2B receptor; test: Binding affinity (pKi) by competitive inhibition of [3H]LSD at 5-HT2B; conditions: for Ki: pKi at 5-HT2B
5-HT2B receptor [5] = target: T2, 5-HT2B receptor; test: Calcium mobilization assay in Flp-In HEK cells (agonist/antagonist functional activity); conditions: compound at 10 μM
[6] = read-out: % Inhibition of radioligand binding 5-HT2C
[7] = read-out: % Inhibition of radioligand binding 5-HT2B
[8] = read-out: % Inhibition of radioligand binding 5-HT2A
[9] = read-out: inhibitory activity at 5-HT2B

T2 sequence (P41595 whole entry): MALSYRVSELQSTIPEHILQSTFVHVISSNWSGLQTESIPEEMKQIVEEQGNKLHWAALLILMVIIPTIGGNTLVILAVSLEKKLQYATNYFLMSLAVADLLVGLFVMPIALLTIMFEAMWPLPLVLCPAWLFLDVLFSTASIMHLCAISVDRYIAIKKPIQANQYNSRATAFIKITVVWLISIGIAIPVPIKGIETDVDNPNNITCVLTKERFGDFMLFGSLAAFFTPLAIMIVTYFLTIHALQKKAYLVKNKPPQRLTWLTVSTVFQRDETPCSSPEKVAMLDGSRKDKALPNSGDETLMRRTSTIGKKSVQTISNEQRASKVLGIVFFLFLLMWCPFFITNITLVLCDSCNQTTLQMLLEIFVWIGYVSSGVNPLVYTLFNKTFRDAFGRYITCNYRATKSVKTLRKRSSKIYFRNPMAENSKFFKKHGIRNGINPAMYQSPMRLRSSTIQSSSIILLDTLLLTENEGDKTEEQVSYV
Chain of 5-HT2A (P28223 whole entry, species assumed): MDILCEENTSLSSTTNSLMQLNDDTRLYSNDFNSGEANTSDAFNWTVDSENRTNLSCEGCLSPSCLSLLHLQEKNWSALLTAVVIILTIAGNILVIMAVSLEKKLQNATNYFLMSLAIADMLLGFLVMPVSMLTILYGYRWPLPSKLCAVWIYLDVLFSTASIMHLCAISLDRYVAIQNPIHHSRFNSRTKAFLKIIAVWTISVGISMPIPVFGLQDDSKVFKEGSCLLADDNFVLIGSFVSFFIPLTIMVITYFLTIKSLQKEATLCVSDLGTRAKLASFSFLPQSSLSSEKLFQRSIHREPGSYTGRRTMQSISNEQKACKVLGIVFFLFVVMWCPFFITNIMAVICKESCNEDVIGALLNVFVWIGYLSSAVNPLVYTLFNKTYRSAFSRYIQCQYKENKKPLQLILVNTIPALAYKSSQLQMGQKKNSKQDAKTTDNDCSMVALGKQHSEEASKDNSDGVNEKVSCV

SMILES | inhibition at 10 µM (5-HT2C [1]; [6]) [%] | inhibition at 10 µM (5-HT2B receptor [2]; [7]) [%] | inhibition at 10 µM (5-HT2A; [8]) [%] | Ki (5-HT2B receptor [4]; Table 7) [µM] | inhibition at 10 µM (5-HT2C [1]; read-out: % Inhibition 5-HT2C) [%] | inhibition at 10 µM (5-HT2B receptor [2]; read-out: % Inhibition 5-HT2B) [%] | inhibition at 10 µM (5-HT2A; read-out: % Inhibition 5-HT2A) [%] | other results
O=c1cc(CCc2ccc(O)cc2)oc2cc(O)ccc12 [Compound 22n, 7-Hydroxy-2-(4′-hydroxy-2-phenylethyl)chromone] | 53.1 | 40.8 | 33.3 |  |  |  |  | inhibition at 10 µM (5-HT2C [1]; read-out: inhibitory activity at 5-HT2C): 53%; Ki (5-HT2C [3]): 2.51 µM; Ki (5-HT2C [3]; Table 7): 2.45 µM
O=c1cc(CCc2ccco2)oc2cccc(O)c12 [Compound 22f, 5-Hydroxy-2-(2-(furan-2-yl)ethyl)chromone] | 24.2 | 68.8 | 12.4 | 1.82 |  |  |  | pKi at 5-HT2B (5-HT2B receptor [4]): 5.7
O=c1cc(CCc2cccc(O)c2)oc2cc(O)ccc12 [Compound 22m, 7-Hydroxy-2-(3′-hydroxy-2-phenylethyl)chromone] | 0 | 25.3 | 23.2 |  |  |  |  | 
O=c1cc(CCCCc2ccccc2)oc2cccc(O)c12 [Compound 22i, 5-hydroxy-2-(4-phenylbutyl)-4H-chromen-4-one] | 14.7 | 45.2 | 5.7 |  | 14.7 | 45.2 | 5.7 | 
O=c1cc(COc2cccc3ccccc23)oc2cccc(O)c12 [Compound 22p, 5-hydroxy-2-((naphthalen-1-yloxy)methyl)chromone] | 0.7 | 11.8 | -1.1 |  |  |  |  | 
O=c1cc(Cc2cccs2)oc2cccc(O)c12 [Compound 22r, 5-hydroxy-2-(thiophen-2-ylmethyl)-4H-chromen-4-one] | 23.5 | 31.5 | -4.5 |  | 23.5 | 31.5 | -4.5 | 
O=c1cc(CCCc2ccccc2)oc2cccc(O)c12 [Compound 22h, 5-hydroxy-2-(3-phenylpropyl)-4H-chromen-4-one] | 7.9 | 70.4 | 5.4 | 0.24 | 7.9 | 70.4 | 5.4 | antagonist activity (5-HT2B receptor [5]; challenged with an EC50 dose (1.6 nM) of 5-HT): 20.5±0.5 % inhibition; agonist activity (5-HT2B receptor [5]; compared to 5-HT): 0.23±0.2 % of the maximal response; pKi at 5-HT2B (5-HT2B receptor [4]): 6.6
O=c1cc(COc2ccccc2)oc2cccc(O)c12 [Compound 22a, 5-hydroxy-2-(phenoxymethyl)-4H-chromen-4-one] | 7 | 50 | 0.2 | > 10 | 7.8 | 50 | 0.2 | Ki (5-HT2B receptor [4]): > 10 µM; inhibition at 10 µM (5-HT2B receptor [2]; [9]): 50%
O=c1cc(COc2ccc3ccccc3c2)oc2cccc(O)c12 [Compound 22o, 5-hydroxy-2-((naphthalen-2-yloxy)methyl)chromone] | -0.7 | 2.9 | -3 |  |  |  |  | 
O=c1cc(Cc2ccccc2)oc2cccc(O)c12 [Compound 22g, 2-benzyl-5-hydroxy-4H-chromen-4-one] | 24.8 | 30.6 | 1.4 |  | 24.8 | 30.6 | 1.4 | 
O=c1cc(Cc2cccc3ccccc23)oc2cccc(O)c12 [Compound 22q, 5-hydroxy-2-(naphthalen-1-ylmethyl)chromone] | 2.1 | 17.4 | 9.5 |  |  |  |  | 
O=c1cc(CCc2cccc(O)c2)oc2cccc(O)c12 [Compound 22c, 5-Hydroxy-2-(3′-hydroxy-2-phenylethyl)chromone] | 30.4 | 76.3 | 39 | 1.29 |  |  |  | pKi at 5-HT2B (5-HT2B receptor [4]): 5.9; inhibition at 10 µM (5-HT2B receptor [2]; [9]): 76%
O=c1cc(COCc2ccccc2)oc2cccc(O)c12 [Compound 22j, 5-hydroxy-2-((benzyloxy)methyl)chromone] | 42.1 | 77.7 | 3.2 |  |  |  |  | pKi at 5-HT2B (5-HT2B receptor [4]; Table 7): 5.8 ± 0.05; fold decrease in 5-HT2B affinity compared to 5-HPPC (22h) (5-HT2B receptor [4]; relative to 5-HPPC): 6 fold; inhibition at 10 µM (5-HT2B receptor [2]; [9]): 78%
O=c1cc(CC(O)c2ccccc2)oc2cc(O)ccc12 (stereo not drawn) [Compound 22l, 7-Hydroxy-2-(2′-hydroxy-2-phenylethyl)chromone] | 44 | 16.6 | 47.9 |  |  |  |  | 
O=c1cc(COCCc2ccccc2)oc2cccc(O)c12 [Compound 22s, 5-hydroxy-2-(phenethoxymethyl)chromone] | 11.7 | 77.7 | 0.3 | 1.26 |  |  |  | 
O=c1cc(CCc2ccccc2)oc2cc(O)ccc12 [Compound 22k, 7-hydroxy-2-phenethyl-4H-chromen-4-one] | 33.7 | 34.2 | 35.5 |  |  |  |  | 
O=c1cc(CCc2cccs2)oc2cccc(O)c12 [Compound 22e, 5-hydroxy-2-(2-(thiophen-2-yl)ethyl)-4H-chromen-4-one] | 19.6 | 74.8 | 1.4 | 1.05 | 19.6 | 74.8 | 1.4 | Ki (5-HT2B receptor [4]): 1.26 µM
O=c1cc(CCc2ccccc2O)oc2cccc(O)c12 [Compound 22b, 5-hydroxy-2-(2-hydroxyphenethyl)-4H-chromen-4-one] | 23.8 | 12.8 | 24.3 |  |  |  |  | 
